Assay results taken from patent US8703956B2, “Amorphous (5-fluoro-2-methyl-3-quinolin-2-ylmethyl-indol-1-yl)-acetic acid” (Atopix Therapeutics Limited, priority 2011, dated 2014).
≈ marks a conversion by molar mass, not a printed value. Counter-ions that a name gives are not always drawn. Like-named read-outs stand apart in the source and are kept apart here.

How the values were obtained:
[1] = Solubility in aqueous solutions (Example 10); type: physicochemical; settings: for Solubility in water: Table 12; for solubility: thermodynamic from solid, read-out: Compound 1 Solubility; for Increase in water solubility: relative to Compound 1 as-received (0.0006 mg/mL)
Procedure: Crystalline and amorphous Compound 1/polymer formulation solubility was determined in different aqueous media (Tables 8A and 8B).
As mentioned earlier, the high solubility of the Compound 1 sodium salt most probably resulted from the conversion of the Compound 1 to its ionized form. In relation to crystalline Compound 1 (as-received sample), formulations containing amorphous form (Tables 11A and 11B) were more soluble than crystalline form under all studied conditions.

[2] = test system: moderate persistent asthma; settings: Barnes et al., European Respiratory Journal 34, suppl. 53, 2009; cited from earlier work
animal models of asthma = settings: in vivo; cited from earlier work
[3] = Solubility in USP simulated gastric and intestinal fluids (Example 11); type: physicochemical; settings: SGF pH 1.2 and SIF pH 6.8, 37° C.
Procedure: The solubilization profile was obtained of various compositions in USP Simulated Gastric Fluid (SGF) and USP Simulated Intestinal Fluid (SIF) with pH 1.2 and 6.8, respectively. […] The concentration of the solution was based on the hypothesis that the test should simulate a dissolution test for a 100 mg dose strength tablet or capsule in 900 ml of dissolution media.
The solubility was tested for the crystalline compound 1 with a purity of 98.9%, and for the amorphous compositions of Examples 6M and 6O (Lots 031 and 033). The following procedure was followed: • A shaking water bath was filled and water temperature left to equilibrate to 37° C. for 24 hours. • USP simulated gastric fluid was prepared as described in the UPS 31, Solutions: Test solutions. • USP simulated intestinal fluid was prepared as described in the UPS 31, Solutions: Test solutions. • The equivalent of 12.5 mg of Compound 1 was weighed and transferred into a 125 mL Erlenmeyer flask, with 100 mL of medium. […]
The amount of dissolved material was determined with respect to a standard and is reported as the percentage of material dissolved with respect to the standard as well as in absolute mg/ml.

[4] = Solubility screening in solvents (Example 2); type: physicochemical; settings: thermodynamic from solid, read-out: Compound 1 Solubility; for solubility at 12 h: 12 h room temperature
Procedure: Before carrying out spray drying experiments, a solvent screening was performed to determine potential solvent that will allow sufficient concentration of Compound 1 in spray drying solution. Approximately 50 mg of Compound 1 was added to 100 mL of each evaluated solvent until visual observation of solution saturation. […]

Q: With `Cc1c(Cc2ccc3ccccc3n2)c2cc(F)ccc2n1CC(=O)O` [Compound 1 sodium salt] as the compound, how does the Solubility in water [1] read?
A: 15370 µg/mL

Q: And the “Compound 1 Solubility” value ([1]; Water)?
A: 15370 µg/mL

Q: What about the solubility ([1]; Water + 1% SDS, aqueous with cosolvent or surfactant or cyclodextrin, Water + 1% SDS) of the same compound?
A: > 30000 µg/mL

Q: What about the solubility ([1]; Water + 1% Tween 20, aqueous with cosolvent or surfactant or cyclodextrin, Water + 1% Tween 20) of the same compound?
A: > 26000 µg/mL

Q: What about the solubility ([1]; Water + 1% Tween 80, aqueous with cosolvent or surfactant or cyclodextrin, Water + 1% Tween 80) of the same compound?
A: > 21000 µg/mL

Q: And the “Compound 1 Solubility” value ([1]; pH 1.0)?
A: 3.6 µg/mL

Q: What about the “Compound 1 Solubility” value ([1]; pH 4.5) of the same compound?
A: 2605 µg/mL

Q: What about the solubility ([1]; pH 6.8 + 1% HTAB, pH 6.8, aqueous with cosolvent or surfactant or cyclodextrin, pH 6.8 + 1% HTAB) of the same compound?
A: 4110 µg/mL

Q: What about the solubility ([1]; pH 6.8 + 1% Tween 20, pH 6.8, aqueous with cosolvent or surfactant or cyclodextrin, pH 6.8 + 1% Tween 20) of the same compound?
A: 128 µg/mL

Q: What about the solubility ([1]; pH 6.8 + 1% Tween 80, pH 6.8, aqueous with cosolvent or surfactant or cyclodextrin, pH 6.8 + 1% Tween 80) of the same compound?
A: 3220 µg/mL

Q: What about the “Compound 1 Solubility” value ([1]; pH 6.8 K) of the same compound?
A: 8554 µg/mL

Q: What about the solubility ([1]; pH 6.8 Na (sodium buffer), pH 6.8, aqueous buffer, pH 6.8 Na) of the same compound?
A: 2490 µg/mL

Q: And the “Compound 1 Solubility” value ([1]; pH 8.0 K)?
A: 5571 µg/mL

Q: And the “Compound 1 Solubility” value ([1]; pH 8.0 Na)?
A: 1744 µg/mL

Q: And the “Increase in water solubility” value [1]?
A: 2561667%

Q: Which results are given for `Cc1c(Cc2ccc3ccccc3n2)c2cc(F)ccc2n1CC(=O)O` [Compound 1, (5-Fluoro-2-methyl-3-quinolin-2-ylmethyl-indol-1-yl)-acetic acid]?
A: Solubility in water [1]: 0.6 µg/mL (≈ 1.72 µM); Compound 1 Solubility ([1]; Water): 0.6 µg/mL; solubility ([1]; aqueous medium pH 1.0, pH 1, simulated gastric fluid, pH 1.0): 2.1 µg/mL (≈ 6.03 µM); Compound 1 Solubility ([1]; pH 4.5): 1.9 µg/mL; Compound 1 Solubility ([1]; pH 6.8 K): 0.3 µg/mL; Compound 1 Solubility ([1]; pH 8.0 K): 0.8 µg/mL; Compound 1 Solubility ([1]; pH 8.0 Na): 0.3 µg/mL; efficacy in a clinical trial with human asthma patients [2]: effective; efficacy in animal models of asthma (animal models of asthma): effective; solubility in SGF and SIF [3]: very poor solubility; solubility ([4]; aqueous buffer, Sodium hydroxide 0.5N, at 45° C.): > 90000 µg/mL; solubility at 12 h ([4]; aqueous buffer, Tris(hydroxymethyl) aminoethane (1% w/v)): < 500 µg/mL; solubility at 12 h ([4]; aqueous with cosolvent or surfactant or cyclodextrin, DMSO/H2O (50/50 v/v)): < 500 µg/mL; solubility at 12 h ([4]; aqueous with cosolvent or surfactant or cyclodextrin, DMSO/H2O (75/25 v/v)): 2000 to 2500 µg/mL (≈ 5740 to 7180 µM); solubility at 12 h ([4]; aqueous with cosolvent or surfactant or cyclodextrin, Hexadecyltrimethylammonium (0.05% w/v)): < 500 µg/mL; solubility at 12 h ([4]; aqueous with cosolvent or surfactant or cyclodextrin, Sodium dodecyl sulfate (2% w/v)): < 500 µg/mL; solubility at 12 h ([4]; aqueous with cosolvent or surfactant or cyclodextrin, Span 80 (1% v/v)): < 500 µg/mL; solubility at 12 h ([4]; aqueous with cosolvent or surfactant or cyclodextrin, Tween 80 (1% v/v)): < 500 µg/mL; solubility at 12 h ([4]; organic solvent or mixture, Carbon tetrachloride): < 500 µg/mL; solubility at 12 h ([4]; organic solvent or mixture, Chloroform): < 500 µg/mL; solubility at 12 h ([4]; organic solvent or mixture, DMSO/DCM (50/50 v/v)): 1000 to 1500 µg/mL (≈ 2870 to 4310 µM); solubility at 12 h ([4]; organic solvent or mixture, DMSO/DCM (75/25 v/v)): 2500 to 3000 µg/mL (≈ 7180 to 8610 µM); solubility at 12 h ([4]; organic solvent or mixture, DMSO/Ethanol (50/50 v/v)): 500 to 1000 µg/mL (≈ 1440 to 2870 µM); solubility at 12 h ([4]; organic solvent or mixture, DMSO/Ethanol (75/25 v/v)): 500 to 1000 µg/mL (≈ 1440 to 2870 µM); solubility at 12 h ([4]; organic solvent or mixture, Dichloromethane (DCM)): < 500 µg/mL; solubility at 12 h ([4]; organic solvent or mixture, Dimethyl sulfoxide (DMSO)): 5500 to 6000 µg/mL (≈ 15800 to 17200 µM); solubility at 12 h ([4]; organic solvent or mixture, Toluene): < 500 µg/mL; solubility at 12 h ([4]; Purified water): < 500 µg/mL

Q: With `Cc1c(Cc2ccc3ccccc3n2)c2cc(F)ccc2n1CC(=O)[O-].[Na+]` [Lot 002] as the compound, how does the Solubility in water [1] read?
A: 16870 µg/mL

Q: And the “Compound 1 Solubility” value ([1]; Water)?
A: 16870 µg/mL

Q: And the “Compound 1 Solubility” value ([1]; Water + 1% SDS)?
A: >17000 µg/mL

Q: What about the “Compound 1 Solubility” value ([1]; Water + 1% Tween 20) of the same compound?
A: >22000 µg/mL

Q: What about the “Compound 1 Solubility” value ([1]; Water + 1% Tween 80) of the same compound?
A: >14000 µg/mL

Q: And the “Compound 1 Solubility” value ([1]; pH 1.0)?
A: 9.1 µg/mL

Q: What about the “Compound 1 Solubility” value ([1]; pH 4.5) of the same compound?
A: 5 µg/mL

Q: And the “Compound 1 Solubility” value ([1]; pH 6.8 + 1% HTAB)?
A: 3597 µg/mL

Q: And the “Compound 1 Solubility” value ([1]; pH 6.8 + 1% Tween 20)?
A: 162.3 µg/mL

Q: What about the “Compound 1 Solubility” value ([1]; pH 6.8 + 1% Tween 80) of the same compound?
A: 226 µg/mL

Q: And the “Compound 1 Solubility” value ([1]; pH 6.8 K)?
A: 0.2 µg/mL

Q: And the “Compound 1 Solubility” value ([1]; pH 6.8 Na)?
A: 0.6 µg/mL

Q: What about the “Compound 1 Solubility” value ([1]; pH 8.0 K) of the same compound?
A: 2740 µg/mL

Q: What about the “Compound 1 Solubility” value ([1]; pH 8.0 Na) of the same compound?
A: 1782 µg/mL

Q: And the “Increase in water solubility” value [1]?
A: 2811667%
